Test system: rat model of MRMT-1 induced bone cancer pain
Details: in vivo

Compound: CN1CC[C@]23c4c5ccc(O)c4O[C@H]2[C@@H](O)C=C[C@H]3[C@H]1C5 [Morphine]
- paw withdrawal threshold (allodynia induced by bone cancer): reversal of deficit in paw withdrawal threshold

From patent US11975055B2 (priority 2018, dated 2024)
